Data taken from PMC2771923 (Journal of medicinal chemistry, 2008).

How the values were obtained:
[1] = target: PRWT (optimized wild-type HIV-1 PR) (Human immunodeficiency virus type 1 group M subtype B, UniProt P04585, C555A/C583A/L521I/L551I/Q495K)
[2] = tested on: PR dimers; settings: fluorescent-tagged PR monomers; cited from earlier work
[3] = target: PRV32I (V32I mutant HIV-1 PR) (Human immunodeficiency virus type 1 group M subtype B, UniProt P04585, C555A/C583A/L521I/L551I/Q495K/V520I)
[4] = target: HIV-1 PR (Human immunodeficiency virus type 1 group M subtype B, UniProt P04585); settings: cited from earlier work

Row | SMILES | γ (factor of γKi) [1] | δ (factor of δKi) [1] | Ki^uncomp (uncompetitive inhibition constant) ([1]; from intercept replots of Lineweaver-Burk plots) | γKi smaller compared to Ki^uncomp ([1]; ratio Ki^uncomp / γKi) | inhibition of the formation of PR dimers [2] | γ (factor of γKi) [3] | δ (factor of δKi) [3] | affinity for HIV-1 PR [4] | dissociation rate [4] | type of inhibition [1] | type of inhibition [3]
1 | CC(C)CN(C[C@@H](O)[C@H](Cc1ccccc1)NC(=O)O[C@H]1CCOC1)S(=O)(=O)c1ccc(N)cc1 [APV, amprenavir] | 0.22 | 0.23 | 0.028 µM | 4.5 fold | absence of APV inhibition | 0.45 | 0.28 |  |  |  | 
2 | CC(C)CN(C[C@@H](O)[C@H](Cc1ccccc1)NC(=O)O[C@H]1CO[C@H]2OCC[C@H]21)S(=O)(=O)c1ccc(N)cc1 [DRV, darunavir] | 1.2 | 0.5 |  |  | inhibited the formation of PR dimers | 1.7 | 0.3 | exceptionally high affinity | greatly decreased dissociation rate |  | 
3 | CC(C)(C)NC(=O)[C@@H]1C[C@@H]2CCCC[C@@H]2CN1C[C@@H](O)[C@H](Cc1ccccc1)NC(=O)[C@H](CC(N)=O)NC(=O)c1ccc2ccccc2n1 [SQV, saquinavir] |  |  |  |  |  |  |  |  |  | purely competitive inhibition | purely competitive inhibition
